# According to the supplement of paper PMC10307832:
# What was measured:
# Assay in all cases: relative viability (nuclei count vs DMSO), 5 days (fraction); higher = more cells survive
# [1] = compound: CC1=CC=C(C=C1)C(=O)CN2C3=C(CCCC3)SC2=N [Pifithrin_alpha] + C[C@@H](Oc1cc(-c2cnn(C3CCNCC3)c2)cnc1N)c1c(Cl)ccc(F)c1Cl [Crizotinib] (partner 1 µM)
# Procedure, shortened: (§1)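 Dosing by pin tool came one day after lung cancer cell lines were seeded in 1536-well plates, using either one drug or a fixed anchor-drug dose plus five library-drug doses (not always all listed) in √10 steps. After 5 days, nuclei were counted on 4× images. Relative viability is treated-well nuclei count divided by vehicle-well nuclei count, and values are medians of duplicate plates.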
# [2] = compound: CC1=CC=C(C=C1)C(=O)CN2C3=C(CCCC3)SC2=N [Pifithrin_alpha] + C[C@]1(O)C[C@@H](c2nc(-c3ccc4ccc(-c5ccccc5)nc4c3)c3c(N)nccn32)C1 [Linsitinib] (partner 1 µM)
# Procedure, shortened: as §1
# [3] = compound: CC1=CC=C(C=C1)C(=O)CN2C3=C(CCCC3)SC2=N [Pifithrin_alpha] + Nc1ncn([C@H]2C[C@H](O)[C@@H](CO)O2)c(=O)n1 [Decitabine] (partner 2 µM)
# Procedure, shortened: as §1
# Bemcentinib + Bortezomib = compound: Nc1nc(Nc2ccc3c(c2)CC[C@@H](N2CCCC2)CC3)nn1-c1cc2c(nn1)-c1ccccc1CCC2 [Bemcentinib] + CC(C)C[C@H](NC(=O)[C@H](Cc1ccccc1)NC(=O)c1cnccn1)B(O)O [Bortezomib] (partner 0.002 µM)
# Procedure, shortened: as §1
Cell Line,relative viability ([1]; first compound 1 µM),relative viability ([1]; first compound 3.162 µM),relative viability ([1]; first compound 10 µM),relative viability ([1]; first compound 31.62 µM),relative viability ([1]; first compound 100 µM),relative viability ([2]; first compound 1 µM),relative viability ([2]; first compound 3.162 µM),relative viability ([2]; first compound 10 µM),relative viability ([2]; first compound 31.62 µM),relative viability ([2]; first compound 100 µM),relative viability ([3]; first compound 1 µM),relative viability ([3]; first compound 3.162 µM),relative viability ([3]; first compound 10 µM),relative viability ([3]; first compound 31.62 µM),relative viability ([3]; first compound 100 µM),relative viability (Bemcentinib + Bortezomib; first compound 0.04 µM),relative viability (Bemcentinib + Bortezomib; first compound 0.1265 µM),relative viability (Bemcentinib + Bortezomib; first compound 0.4 µM),relative viability (Bemcentinib + Bortezomib; first compound 1.265 µM),relative viability (Bemcentinib + Bortezomib; first compound 4 µM)
LOU-NH91,0.704,0.722,0.748,0.689,0.654,0.789,0.849,0.828,0.753,0.846,0.758,0.79,0.808,0.705,0.742,0.429,0.503,0.493,0.487,0.407
LU99A,0.565,0.633,0.496,,0.699,0.539,0.64,0.619,,0.529,0.834,0.919,1.04,,0.863,1.11,1.12,1.01,1.25,1.2
LXF-289,0.878,0.813,0.805,0.696,0.788,0.985,0.967,0.959,0.869,0.961,0.359,0.335,0.388,0.366,0.369,1.02,1.06,1.03,1.06,1.07
NCI-H23,0.591,0.596,0.432,0.426,0.506,0.543,0.546,0.567,0.443,0.515,0.317,0.316,0.317,0.283,0.337,1.16,1.14,1.01,1.17,1.14
NCI-H322M,0.894,0.907,0.871,0.674,0.986,0.85,0.898,0.902,0.821,1.04,0.72,0.708,0.719,0.78,0.784,1.25,1.25,1.23,1.34,1.34
NCI-H441,0.718,0.739,0.806,0.56,0.826,0.52,0.528,0.613,0.478,0.662,0.233,0.294,0.212,,0.301,0.923,0.689,0.455,0.407,0.507
NCI-H460,1.4,0.827,0.912,,0.962,0.764,0.795,0.906,,0.563,0.531,0.496,0.392,0.218,0.215,1.24,1.54,1.66,1.25,1.15
NCI-H520,1.19,0.805,0.731,0.509,0.833,1.07,1.07,0.946,0.623,1.12,0.595,0.481,0.578,0.397,0.507,0.517,0.472,0.711,0.591,0.61
NCI-H596,0.953,0.92,0.952,0.883,1.02,1.04,1.2,1.21,1.11,1.16,0.89,1.15,1.12,1.07,1.09,0.897,1.23,1.08,1.1,1.03
NCI-H647,0.838,1.03,0.927,,0.605,1.27,1.2,1.02,,0.748,0.442,0.403,0.376,0.339,0.406,1.18,1.14,1.24,0.811,1.11
NCI-H661,1.16,0.93,0.908,1.17,0.988,0.669,0.616,0.565,0.68,0.598,0.536,0.591,0.587,0.542,0.469,0.782,0.92,0.887,0.772,0.899
NCI-H727,0.789,0.78,0.823,0.556,0.673,0.295,0.312,0.271,0.293,0.217,0.328,0.782,0.835,0.731,0.749,0.691,1.12,0.918,0.746,1.1
NCI-H838,0.829,0.746,0.667,0.496,0.625,0.96,0.888,0.853,0.735,0.782,0.427,0.473,0.441,0.387,0.389,1.01,0.748,0.986,0.763,0.834
NCI-H1355,0.995,0.734,0.62,0.619,0.733,0.753,0.666,0.599,0.605,0.599,0.308,0.349,0.339,0.29,0.304,1.22,1.3,1.15,1.24,1.26
NCI-H1437,1.05,0.962,0.892,0.763,1.02,1.14,1.24,0.893,0.564,0.54,0.626,0.605,0.563,0.586,0.364,0.54,0.546,0.503,0.405,0.489
NCI-H1651,0.942,0.924,0.934,0.835,0.959,0.997,1.13,0.892,0.709,1.02,0.166,0.642,0.569,0.537,0.635,0.955,1.05,1.03,0.745,0.878
NCI-H1666,0.665,0.63,0.549,0.474,0.316,0.69,0.599,0.534,0.521,0.448,0.523,0.595,0.557,0.615,0.569,0.649,0.937,0.854,0.895,0.759
NCI-H1734,0.826,0.647,0.686,0.592,0.604,0.994,0.89,0.862,0.611,0.889,0.497,0.463,0.502,0.441,0.556,0.935,0.871,1.2,0.953,0.947
NCI-H1755,0.858,0.78,0.771,0.634,0.864,0.935,0.991,0.905,0.802,0.969,0.74,0.632,0.731,0.593,0.729,0.982,1,0.973,0.995,0.961
NCI-H1792,0.869,0.821,0.798,0.612,0.573,0.563,0.498,0.378,0.422,0.486,0.457,0.48,0.624,,0.423,1.02,1.17,1.19,1.04,1.03
NCI-H1915,0.867,0.979,0.912,,1.25,1.01,1.08,1.08,,1.14,0.27,0.254,0.249,,0.224,0.731,1.02,1.04,0.853,1.05
NCI-H1975,0.881,0.8,0.659,0.537,0.611,0.948,0.707,0.643,0.733,0.523,0.663,0.339,0.306,0.311,0.279,0.381,0.347,0.417,0.433,0.44
NCI-H1993,,0.771,0.815,0.797,0.794,,0.669,0.741,0.684,0.714,0.514,0.494,0.609,0.467,0.505,1.12,1.17,1.14,0.921,1.2
NCI-H2009,0.963,1.03,0.955,0.679,0.857,1.25,1.25,1.16,0.822,0.998,0.361,0.349,0.404,0.344,0.409,0.986,1.05,1.09,1.09,1.19
NCI-H2023,0.505,0.501,0.381,0.3,0.37,0.674,0.511,0.63,0.46,0.476,0.237,0.211,0.23,0.201,0.242,0.938,1.03,1.04,1.15,1.12
NCI-H2085,0.795,0.848,0.7,0.747,0.966,0.829,0.934,0.768,0.797,0.859,0.523,0.419,0.473,0.473,0.503,1.01,1.11,1.03,0.997,0.973
NCI-H2087,0.95,0.796,0.818,0.706,0.895,0.765,1.03,0.966,0.776,0.778,0.252,0.291,0.262,0.203,0.267,0.736,1.09,0.994,0.61,0.769
